Consider six molecules from PubChem BioAssay (NCI).

Test systems include SK-OV-3 ovarian; MDA-MB-231 breast; A549 NSCLC; HCT-15 colon; MCF7 breast; K-562 leukemia; SR leukemia; KM12 colon; EKVX NSCLC; BT-549 breast.
Holding throughout (test): DTP human tumour cell line panel, 48 h

Each structure is given as a SMILES string.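 Where inhibition never reached the appropriate level, the endpoint shown equals the highest concentration tested. Otherwise, values were interpolated linearly from a five-concentration, 48-hour dose response in 96-well plates. Here, GI50 denotes the concentration required for 50% inhibition of growth. Definition used: TGI = concentration required for complete inhibition of growth.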

For `COc1ccc(/C=C(/C(=O)n2cnnn2)c2cc(OC)c(OC)c(OC)c2)cc1`, the GI50 (in general, the concentration that inhibits growth by half) is 5.26 µM in the experiment with SK-OV-3 ovarian; 4.7 µM with MDA-MB-231 breast; 3.97 µM with A549 NSCLC; 2.03 µM in the experiment on HCT-15 colon; 2.63 µM in the experiment with MCF7 breast; 2.86 µM with K-562 leukemia. Also, the GI50 is 0.752 µM in the experiment on SR leukemia, 1.96 µM in the experiment with KM12 colon, 5.48 µM in the experiment with EKVX NSCLC and 2.32 µM in the experiment on BT-549 breast. Moreover, the total growth inhibition concentration (TGI) in the experiment with SK-OV-3 ovarian, in the experiment with MDA-MB-231 breast, in the experiment on A549 NSCLC, in the experiment with HCT-15 colon, in the experiment with MCF7 breast and with K-562 leukemia was greater than 100 µM each time. Further, the TGI (commonly the concentration giving total growth inhibition) with SR leukemia was greater than 100 µM; in the experiment on KM12 colon, greater than 100 µM; with EKVX NSCLC, greater than 100 µM; in the experiment with BT-549 breast, 7.57 µM.

For the molecule `CN(C)CCCC1(c2ccc(F)cc2)OCc2cc(-c3cncc4ccccc34)ccc21` (centres undefined), the GI50 is 5.48 µM in the experiment with SK-OV-3 ovarian; 2.1 µM with MDA-MB-231 breast; 3.92 µM in the experiment with A549 NSCLC; 3.32 µM in the experiment with HCT-15 colon; 1.89 µM with MCF7 breast; 2.02 µM in the experiment with K-562 leukemia. Further, the GI50 in the experiment on SR leukemia is 3 µM; with KM12 colon, 3.41 µM; in the experiment with EKVX NSCLC, 8.48 µM; in the experiment with BT-549 breast it was 7.45 µM. Besides, the concentration for total growth inhibition (TGI) was found to be 18.8 µM in the experiment on SK-OV-3 ovarian; 6.57 µM in the experiment on MDA-MB-231 breast; 16.2 µM with A549 NSCLC; 12.6 µM with HCT-15 colon; 4.57 µM with MCF7 breast; 5.17 µM in the experiment with K-562 leukemia. The total growth inhibition concentration (TGI) in the experiment with SR leukemia was found to be 17.9 µM; in the experiment with KM12 colon, 12.1 µM; in the experiment on EKVX NSCLC, 21.2 µM; in the experiment on BT-549 breast, 20.5 µM.

Regarding `O=C(CCN1CCCC1)Nc1ccc2c(Nc3ccccc3)c3ccccc3nc2c1`, the GI50 with SK-OV-3 ovarian was 0.651 µM; in the experiment on MDA-MB-231 breast it was 1.41 µM; in the experiment on A549 NSCLC, 0.113 µM; in the experiment on HCT-15 colon, 0.367 µM; in the experiment on MCF7 breast it was 0.0221 µM; with K-562 leukemia it was 0.235 µM. In addition, the GI50 was 0.0503 µM with SR leukemia, 0.546 µM in the experiment on KM12 colon, 1.41 µM in the experiment on EKVX NSCLC and 1.5 µM in the experiment with BT-549 breast. For the same molecule, the TGI in the experiment on SK-OV-3 ovarian worked out at 3.59 µM; in the experiment on MDA-MB-231 breast it was 3.45 µM; with A549 NSCLC it was 3.22 µM; in the experiment with HCT-15 colon it was 2.36 µM; in the experiment with MCF7 breast, 1.77 µM; with K-562 leukemia it was 1.2 µM. Besides, the TGI in the experiment on SR leukemia stood at 1.45 µM; in the experiment on KM12 colon, 2.7 µM; in the experiment on EKVX NSCLC, 4.23 µM; with BT-549 breast, 3.09 µM.

For the molecule `O=C(O)C1C(C(=O)O)C2(Cl)C(Cl)=C(Cl)C1(Cl)C2(Cl)Cl.[Cd]` (centres undefined), the GI50 with SK-OV-3 ovarian was 19.6 µM; in the experiment on MDA-MB-231 breast it was 20.9 µM; in the experiment on A549 NSCLC, 18.7 µM; in the experiment on HCT-15 colon it was 21.4 µM; with MCF7 breast, 17.3 µM; with K-562 leukemia it was 16.3 µM. Also, the GI50 in the experiment with SR leukemia is 2.8 µM; in the experiment on KM12 colon, 16.9 µM; in the experiment with EKVX NSCLC, 19.9 µM; in the experiment with BT-549 breast it was 1.33 µM. In addition, the TGI is 36.2 µM in the experiment on SK-OV-3 ovarian; 42.4 µM in the experiment with MDA-MB-231 breast; 39 µM in the experiment with A549 NSCLC; 46.6 µM with HCT-15 colon; 35.9 µM with MCF7 breast; 51.8 µM in the experiment on K-562 leukemia. Besides, the TGI with SR leukemia was determined as 32.7 µM; with KM12 colon, 37.5 µM; in the experiment on EKVX NSCLC, 35.6 µM; in the experiment on BT-549 breast it was 2.74 µM.

For `COc1cc2nnn3c4ncccc4c(N=O)c3c2cc1OC`, the GI50 was 6.96 µM in the experiment on SK-OV-3 ovarian; 4.09 µM in the experiment on MDA-MB-231 breast; 18.2 µM in the experiment with A549 NSCLC; 2.2 µM in the experiment with HCT-15 colon; 0.327 µM in the experiment on MCF7 breast; 0.282 µM in the experiment with K-562 leukemia. The GI50 with SR leukemia was 0.0319 µM; in the experiment on KM12 colon it was 2.46 µM; with EKVX NSCLC, 3.97 µM; in the experiment on BT-549 breast, 9.43 µM. For the same molecule, the TGI is 41.7 µM in the experiment on SK-OV-3 ovarian; greater than 53.9 µM with MDA-MB-231 breast; greater than 69.2 µM in the experiment on A549 NSCLC; 21.1 µM in the experiment on HCT-15 colon; greater than 74.5 µM with MCF7 breast; greater than 100 µM in the experiment with K-562 leukemia. Moreover, the results for the TGI in the experiment on KM12 colon, in the experiment with EKVX NSCLC and with BT-549 breast were greater than 100 µM, greater than 66.6 µM and 64.6 µM, respectively.

`Cn1cc(CO)c2ccccc21`: the GI50 is 77.5 µM in the experiment with SK-OV-3 ovarian; 52 µM in the experiment on MDA-MB-231 breast; 64.3 µM in the experiment with A549 NSCLC; 22.4 µM with HCT-15 colon; 26.9 µM in the experiment on MCF7 breast; 17.5 µM in the experiment with K-562 leukemia. For the same molecule, the GI50 in the experiment with SR leukemia was 17.9 µM; in the experiment on KM12 colon it was 15.9 µM; in the experiment on EKVX NSCLC, 50.7 µM; in the experiment on BT-549 breast, 53.7 µM. Besides, the concentration for total growth inhibition (TGI) in the experiment on SK-OV-3 ovarian, in the experiment on MDA-MB-231 breast, in the experiment on A549 NSCLC, in the experiment with HCT-15 colon, in the experiment with MCF7 breast and with K-562 leukemia was greater than 100 µM in each case. Moreover, the TGI is greater than 100 µM with SR leukemia, 88.5 µM in the experiment with KM12 colon, greater than 100 µM in the experiment with EKVX NSCLC and greater than 100 µM in the experiment on BT-549 breast.
